Experimental data from patent US10471046B2, “Method for treating, preventing, or reducing the risk of skin infection” (Melinta Subsidiary Corp., priority 2014, dated 2019).
≈ marks a conversion by molar mass, not a printed value.

The molecules below were run on S. aureus (assay: Minimum inhibitory concentrations (MICs) for S. aureus of exemplary compounds (Table 2)). Details: Staphylococcus aureus, minimum inhibitory concentrations for S. aureus; read-out: MICs.
Type: cell-based
Procedure, shortened: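 MICs (μg/mL) against S. aureus come from microtiter-tray dilution susceptibility testing per NCCLS M7-A5, comparing growth with and without compound.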
`O=C1O[C@@H](Cn2ccnn2)CN1c1ccc(-c2ccc(Cn3ccnc3)cc2)c(F)c1` [Compound 1084, 3-(2-Fluoro-4′-imidazol-1-ylmethyl-biphenyl-4-yl)-5-(R)-[1,2,3]triazol-1-ylmethyl-oxazolidin-2-one] gave an MIC of 0.25 µg/mL (≈ 0.597 µM). Work on `CC(=O)NC[C@H]1CN(c2ccc(-c3ccc([C@H](O)CN(C)Cc4ccccc4)cc3)c(F)c2)C(=O)O1` [Compound 4251, N-(3-{4′-[2-(Benzyl-methyl-amino)-1-(S)-hydroxy-ethyl]-2-fluoro-biphenyl-4-yl}-2-oxo-oxazolidin-5-(S)-ylmethyl)-acetamide] yielded an MIC of 2 µg/mL (≈ 4.07 µM). Molecule `CC(=O)NC[C@H]1CN(c2ccc(-c3ccc(Cn4cccn4)nc3)c(F)c2)C(=O)O1` [Compound 1076, N-{3-[3-Fluoro-4-(6-pyrazol-1-ylmethyl-pyridin-3-yl)-phenyl]-2-oxo-oxazolidin-5-(S)-ylmethyl}-acetamide] has an MIC of 1 µg/mL (≈ 2.44 µM). `CC(=O)NC[C@H]1CN(c2ccc(-c3ccc(CNCCn4ccnn4)cc3)c(F)c2)C(=O)O1` [Compound 4262, N-(3-{2-Fluoro-4′-[(2-[1,2,3]triazol-1-yl-ethylamino)-methyl]-biphenyl-4-yl}-2-oxo-oxazolidin-5-(S)-ylmethyl)-acetamide] showed an MIC of 2 µg/mL (≈ 4.42 µM). With `CC(=O)NC[C@H]1CN(c2ccc(-c3ccc(CNC(=O)C4CN(C(=O)OC(C)(C)C)C4)cc3)c(F)c2)C(=O)O1` [Compound 4290, 3-({4′-[5-(S)-(Acetylamino-methyl)-2-oxo-oxazolidin-3-yl]-2′-fluoro-biphenyl-4-ylmethyl}-carbamoyl)-azetidine-1-carboxylic acid tert-butyl ester] the MIC was 16 µg/mL (≈ 29.6 µM). Molecule `CC(=O)NC[C@H]1CN(c2ccc(-c3ccc(CSc4ccncc4)cc3)c(F)c2)C(=O)O1` [Compound 2019, N-{3-[2-Fluoro-4′-(pyridin-4-ylsulfanylmethyl)-biphenyl-4-yl]-2-oxo-oxazolidin-5-(S)-ylmethyl}-acetamide] has an MIC of 1 µg/mL (≈ 2.21 µM). In the case of `CC(=O)NC[C@H]1CN(c2ccc(-c3ccc(CNCc4nnnn4C)cc3)c(F)c2)C(=O)O1` [Compound 4283, N-[3-(2-Fluoro-4′-{[(1-methyl-1H-tetrazol-5-ylmethyl)-amino]-methyl}-biphenyl-4-yl)-2-oxo-oxazolidin-5-(S)-ylmethyl]-acetamide], the MIC is reported as 0.25 µg/mL (≈ 0.551 µM). `CC(=O)NC[C@H]1CN(c2ccc(-c3ccc(CNCCC4CCCN4C)cc3)c(F)c2)C(=O)O1` (mixture of isomers) [Compound 4150, N-[3-(2-Fluoro-4′-{[2-(R/S)-(1-methyl-pyrrolidin-2-yl)-ethylamino]-methyl}-biphenyl-4-yl)-2-oxo-oxazolidin-5-(S)-ylmethyl]-acetamide] gave an MIC of 16 µg/mL. With `CC(=O)NC[C@H]1CN(c2ccc(-c3ccc(CNCC(CF)n4ccnn4)cc3)c(F)c2)C(=O)O1` (stereo partly drawn) [Compound 4274, N-(3-{2-Fluoro-4′-[(3-fluoro-2-[1,2,3]triazol-1-yl-propylamino)-methyl]-biphenyl-4-yl}-2-oxo-oxazolidin-5-(S)-ylmethyl)-acetamide] the MIC was 2 µg/mL (≈ 4.13 µM). `CC(=O)NC[C@H]1CN(c2ccc(-c3ccc(CNCCSc4nccs4)cc3)c(F)c2)C(=O)O1` [Compound 5006, N-[3-(2-Fluoro-4′-{[2-(thiazol-2-ylsulfanyl)-ethylamino]-methyl}-biphenyl-4-yl)-2-oxo-oxazolidin-5-(S)-ylmethyl]-acetamide] gave an MIC of 1 µg/mL (≈ 2 µM). With `CC(=O)NC[C@H]1CN(c2ccc(-c3ccc(CNCc4noc(C)n4)cc3)c(F)c2)C(=O)O1` [Compound 4141, N-[3-(2-Fluoro-4′-{[(5-methyl-[1,2,4]oxadiazol-3-ylmethyl)-amino]-methyl}-biphenyl-4-yl)-2-oxo-oxazolidin-5-(S)-ylmethyl]-acetamide] the MIC was 2 µg/mL (≈ 4.41 µM). In the case of `CC(=O)NC[C@H]1CN(c2ccc(-c3ccc(C(NC(=O)OCc4ccccc4)c4nnn(C)n4)cc3)c(F)c2)C(=O)O1` (mixture of isomers) [Compound 1041, [{4′-[5-(S)-(Acetylamino-methyl)-2-oxo-oxazolidin-3-yl]-2′-fluoro-biphenyl-4-yl}-(2-methyl-2H-tetrazol-5-(R/S)-yl)-methyl]-carbamic acid benzyl ester], the MIC is reported as 1 µg/mL (≈ 1.74 µM). Molecule `CC(=O)NC[C@H]1CN(c2ccc(-c3ccc(C(=O)NCCc4cnc[nH]4)c(F)c3)c(F)c2)C(=O)O1` [Compound 4191, 4′-[5-(S)-(Acetylamino-methyl)-2-oxo-oxazolidin-3-yl]-3,2′-difluoro-biphenyl-4-carboxylic acid [2-(3H-imidazol-4-yl)-ethyl]-amide] has an MIC of 1 µg/mL (≈ 2.07 µM). In the case of `CC(=O)NC[C@H]1CN(c2ccc(-c3ccc(CNC(=O)Nc4ccncc4)cc3)c(F)c2)C(=O)O1` [Compound 5012, N-(3-{2-Fluoro-4′-[(3-pyridin-4-yl-ureido)-methyl]-biphenyl-4-yl}-2-oxo-oxazolidin-5-(S)-ylmethyl)-acetamide], the MIC is reported as 2 µg/mL (≈ 4.19 µM). Work on `CC(=O)NC[C@H]1CN(c2ccc(-c3ccc(CNCc4[nH]nnc4C)cc3)c(F)c2)C(=O)O1` [Compound 4269, N-[3-(2-Fluoro-4′-{[(5-methyl-3H-[1,2,3]triazol-4-ylmethyl)-amino]-methyl}-biphenyl-4-yl)-2-oxo-oxazolidin-5-(S)-ylmethyl]-acetamide] yielded an MIC of 2 µg/mL (≈ 4.42 µM). For `CC(=O)NC[C@H]1CN(c2cc(F)c(-c3ccc(Cn4cnnn4)cc3)c(F)c2)C(=O)O1` [Compound 1048, N-[3-(2,6-Difluoro-4′-tetrazol-1-ylmethyl-biphenyl-4-yl)-2-oxo-oxazolidin-5-(S)-ylmethyl]-acetamide], the MIC was 1 µg/mL (≈ 2.33 µM). `CC(=O)NC[C@H]1CN(c2ccc(-c3ccc(CNCc4n[nH]c(=O)[nH]4)cc3)c(F)c2)C(=O)O1` [Compound 4178, N-[3-(2-Fluoro-4′-{[(5-(S)-oxo-4,5-dihydro-1H-[1,2,4]triazol-3-ylmethyl)-amino]-methyl}-biphenyl-4-yl)-2-oxo-oxazolidin-5-(S)-ylmethyl]-acetamide] was tested, and the MIC was 8 µg/mL (≈ 17.6 µM). In the case of `CC(=O)NC[C@H]1CN(c2ccc(-c3ccc(CNN4CCN(C)CC4)cc3)c(F)c2)C(=O)O1` [Compound 2057, N-(3-{2-Fluoro-4′-[(4-methyl-piperazin-1-ylamino)-methyl]-biphenyl-4-yl}-2-oxo-oxazolidin-5-(S)-ylmethyl)-acetamide], the MIC is reported as 1 µg/mL (≈ 2.2 µM). Work on `COc1cc(CN(C)Cc2ccoc2)ccc1-c1ccc(N2C[C@H](CNC(C)=O)OC2=O)cc1F` [Compound 4034, N-(3-{2-Fluoro-4′-[(furan-3-ylmethyl-methyl-amino)-methyl]-2′-methoxy-biphenyl-4-yl}-2-oxo-oxazolidin-5-(S)-ylmethyl)-acetamide] yielded an MIC of 32 µg/mL (≈ 66.5 µM). Molecule `CC(=O)NC[C@H]1CN(c2ccc(-c3ccc([C@H](CO)n4ccnn4)cc3)c(F)c2)C(=O)O1` [Compound 1073, N-{3-[2-Fluoro-4′-(2-hydroxy-1-(R)-[1,2,3]triazol-1-yl-ethyl)-biphenyl-4-yl]-2-oxo-oxazolidin-5-(S)-ylmethyl}-acetamide] has an MIC of 1 µg/mL (≈ 2.28 µM). With `CC(=O)NC[C@H]1CN(c2ccc(-c3ccc(CN4CC[C@H](O)C4)cc3)c(F)c2)C(=O)O1` [Compound 1087, N-{3-[2-Fluoro-4′-(3-(S)-hydroxy-pyrrolidin-1-ylmethyl)-biphenyl-4-yl]-2-oxo-oxazolidin-5-(S)-ylmethyl}-acetamide] the MIC was 4 µg/mL (≈ 9.36 µM). Molecule `CC(=O)NC[C@H]1CN(c2ccc(-c3ccc(CNCC(O)c4ccc(F)cc4)cc3)c(F)c2)C(=O)O1` (mixture of isomers) [Compound 4275, N-[3-(2-Fluoro-4′-{[2-(4-fluoro-phenyl)-2-(R/S)-hydroxy-ethylamino]-methyl}-biphenyl-4-yl)-2-oxo-oxazolidin-5-(S)-ylmethyl]-acetamide] has an MIC of 0.5 µg/mL. `CC(=O)NC[C@H]1CN(c2ccc(-c3ccc(CNCc4nnn(C)n4)cc3)c(F)c2)C(=O)O1` [Compound 4284, N-[3-(2-Fluoro-4′-{[(2-methyl-2H-tetrazol-5-ylmethyl)-amino]-methyl}-biphenyl-4-yl)-2-oxo-oxazolidin-5-(S)-ylmethyl]-acetamide] was tested, and the MIC was 0.25 µg/mL (≈ 0.551 µM). With `CC(=O)NC[C@H]1CN(c2ccc(-c3ccc(CNC(=O)[C@H](N)Cc4cnc[nH]4)cc3)c(F)c2)C(=O)O1` [Compound 4292, N-{4′-[5-(S)-(Acetylamino-methyl)-2-oxo-oxazolidin-3-yl]-2′-fluoro-biphenyl-4-ylmethyl}-2-(R)-amino-3-(3H-imidazol-4-yl)-propionamide] the MIC was 16 µg/mL (≈ 32.4 µM). For `CC(=O)NC[C@H]1CN(c2ccc(-c3ccc(Cn4cnc5c(NCC(F)F)ncnc54)cc3)c(F)c2)C(=O)O1` [Compound 1103, N-(3-{4′-[6-(2,2-Difluoro-ethylamino)-purin-9-ylmethyl]-2-fluoro-biphenyl-4-yl}-2-oxo-oxazolidin-5-(S)-ylmethyl)-acetamide], the MIC was 1 µg/mL (≈ 1.85 µM). `CC(=O)NC[C@H]1CN(c2ccc(-c3ccc(CNC(=O)Cn4cc(CO)nn4)cc3)c(F)c2)C(=O)O1` [Compound 4240, N-{4′-[5-(S)-(Acetylamino-methyl)-2-oxo-oxazolidin-3-yl]-2′-fluoro-biphenyl-4-ylmethyl}-2-(4-hydroxymethyl-[1,2,3]triazol-1-yl)-acetamide] gave an MIC of 16 µg/mL (≈ 32.2 µM). Molecule `CC(=O)NC[C@H]1CN(c2ccc(-c3ccc(CNC(=O)[C@@H]4C[C@@H](O)CN4)cc3)c(F)c2)C(=O)O1` [Compound 4301, 4-(R)-Hydroxy-pyrrolidine-2-(S)-carboxylicacid {4′-[5-(S)-(acetylamino-methyl)-2-oxo-oxazolidin-3-yl]-2′-fluoro-biphenyl-4-ylmethyl}-amide] has an MIC of 8 µg/mL (≈ 17 µM). Molecule `CC(=O)NC[C@H]1CN(c2ccc(-c3ccc(Cn4cnc5c(N(C)C)ncnc54)cc3)c(F)c2)C(=O)O1` [Compound 1105, N-{3-[4′-(6-Dimethylamino-purin-9-ylmethyl)-2-fluoro-biphenyl-4-yl]-2-oxo-oxazolidin-5-(S)-ylmethyl}-acetamide] has an MIC of 1 µg/mL (≈ 1.99 µM). `CC(=O)NC[C@H]1CN(c2ccc(-c3ccc(CNS(=O)(=O)c4ccc(N5CCOCC5)nc4)cc3)c(F)c2)C(=O)O1` [Compound 2044, N-(3-{2-Fluoro-4′-[(6-morpholin-4-yl-pyridine-3-sulfonylamino)-methyl]-biphenyl-4-yl}-2-oxo-oxazolidin-5-(S)-ylmethyl)-acetamide] was tested, and the MIC was 128 µg/mL (≈ 219 µM).
